Columns and labels:
[1] = target: BDNF/NT-3 growth factors receptor (Homo sapiens) (UniProt Q16620); assay: Inhibition of TRKB (unknown origin) at 0.5 uM relative to control
[2] = target: T1, Ephrin type-B receptor 2 (Homo sapiens) (UniProt P29323); assay: Inhibition of EPHB2 (unknown origin) at 0.5 uM relative to control
T1 sequence (whole entry): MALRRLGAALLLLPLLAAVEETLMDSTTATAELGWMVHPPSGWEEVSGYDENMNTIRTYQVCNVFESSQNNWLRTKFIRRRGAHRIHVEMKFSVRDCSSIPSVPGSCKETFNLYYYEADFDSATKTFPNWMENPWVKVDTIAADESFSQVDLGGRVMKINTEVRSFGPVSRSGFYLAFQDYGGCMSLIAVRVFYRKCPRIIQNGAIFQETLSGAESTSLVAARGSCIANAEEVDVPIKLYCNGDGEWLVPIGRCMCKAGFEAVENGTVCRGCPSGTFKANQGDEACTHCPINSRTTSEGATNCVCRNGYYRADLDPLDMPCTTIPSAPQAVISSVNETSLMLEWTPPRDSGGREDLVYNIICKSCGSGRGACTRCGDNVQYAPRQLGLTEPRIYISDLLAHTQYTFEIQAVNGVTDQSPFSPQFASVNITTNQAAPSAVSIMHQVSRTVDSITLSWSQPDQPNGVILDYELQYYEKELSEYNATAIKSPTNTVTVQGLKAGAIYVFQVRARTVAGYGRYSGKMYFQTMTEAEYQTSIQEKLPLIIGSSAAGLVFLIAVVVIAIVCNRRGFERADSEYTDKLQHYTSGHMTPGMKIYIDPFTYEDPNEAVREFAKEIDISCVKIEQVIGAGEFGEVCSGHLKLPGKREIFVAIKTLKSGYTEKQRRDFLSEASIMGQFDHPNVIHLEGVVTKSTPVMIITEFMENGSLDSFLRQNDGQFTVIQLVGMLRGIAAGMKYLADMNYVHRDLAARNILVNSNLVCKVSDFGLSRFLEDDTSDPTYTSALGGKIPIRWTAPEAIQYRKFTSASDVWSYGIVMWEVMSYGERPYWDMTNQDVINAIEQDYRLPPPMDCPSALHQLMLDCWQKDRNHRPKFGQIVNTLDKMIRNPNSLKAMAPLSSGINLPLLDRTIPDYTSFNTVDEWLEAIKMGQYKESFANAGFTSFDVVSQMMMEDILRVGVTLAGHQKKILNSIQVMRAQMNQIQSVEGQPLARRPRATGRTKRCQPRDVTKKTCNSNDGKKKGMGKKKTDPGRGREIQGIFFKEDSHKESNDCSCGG

[3] = target: NT-3 growth factor receptor (Homo sapiens) (UniProt Q16288); assay: Inhibition of TRKC (unknown origin) at 0.5 uM relative to control
[4] = target: T2, Homeodomain-interacting protein kinase 4 (Homo sapiens) (UniProt Q8NE63); assay: Inhibition of HIPK4 (unknown origin) at 0.5 uM relative to control
T2 sequence (whole entry): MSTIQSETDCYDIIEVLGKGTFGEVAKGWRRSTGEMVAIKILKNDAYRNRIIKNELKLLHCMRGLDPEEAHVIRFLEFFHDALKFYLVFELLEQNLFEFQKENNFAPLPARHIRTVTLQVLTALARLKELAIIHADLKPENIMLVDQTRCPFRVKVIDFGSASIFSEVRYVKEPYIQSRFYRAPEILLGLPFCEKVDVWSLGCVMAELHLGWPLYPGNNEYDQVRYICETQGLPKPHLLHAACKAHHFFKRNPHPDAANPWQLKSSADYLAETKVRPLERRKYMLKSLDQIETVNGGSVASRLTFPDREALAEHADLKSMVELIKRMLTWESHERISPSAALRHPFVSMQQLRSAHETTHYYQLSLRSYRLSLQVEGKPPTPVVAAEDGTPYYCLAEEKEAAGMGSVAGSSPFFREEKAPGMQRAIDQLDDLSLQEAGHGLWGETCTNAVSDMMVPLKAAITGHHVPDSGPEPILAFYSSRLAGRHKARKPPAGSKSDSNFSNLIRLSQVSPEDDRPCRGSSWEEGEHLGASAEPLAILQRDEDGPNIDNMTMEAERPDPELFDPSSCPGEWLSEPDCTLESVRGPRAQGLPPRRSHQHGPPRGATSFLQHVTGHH

[5] = target: T3, Ephrin type-B receptor 4 (Homo sapiens) (UniProt P54760); assay: Inhibition of EPHB4 (unknown origin) at 0.5 uM relative to control
T3 sequence (whole entry): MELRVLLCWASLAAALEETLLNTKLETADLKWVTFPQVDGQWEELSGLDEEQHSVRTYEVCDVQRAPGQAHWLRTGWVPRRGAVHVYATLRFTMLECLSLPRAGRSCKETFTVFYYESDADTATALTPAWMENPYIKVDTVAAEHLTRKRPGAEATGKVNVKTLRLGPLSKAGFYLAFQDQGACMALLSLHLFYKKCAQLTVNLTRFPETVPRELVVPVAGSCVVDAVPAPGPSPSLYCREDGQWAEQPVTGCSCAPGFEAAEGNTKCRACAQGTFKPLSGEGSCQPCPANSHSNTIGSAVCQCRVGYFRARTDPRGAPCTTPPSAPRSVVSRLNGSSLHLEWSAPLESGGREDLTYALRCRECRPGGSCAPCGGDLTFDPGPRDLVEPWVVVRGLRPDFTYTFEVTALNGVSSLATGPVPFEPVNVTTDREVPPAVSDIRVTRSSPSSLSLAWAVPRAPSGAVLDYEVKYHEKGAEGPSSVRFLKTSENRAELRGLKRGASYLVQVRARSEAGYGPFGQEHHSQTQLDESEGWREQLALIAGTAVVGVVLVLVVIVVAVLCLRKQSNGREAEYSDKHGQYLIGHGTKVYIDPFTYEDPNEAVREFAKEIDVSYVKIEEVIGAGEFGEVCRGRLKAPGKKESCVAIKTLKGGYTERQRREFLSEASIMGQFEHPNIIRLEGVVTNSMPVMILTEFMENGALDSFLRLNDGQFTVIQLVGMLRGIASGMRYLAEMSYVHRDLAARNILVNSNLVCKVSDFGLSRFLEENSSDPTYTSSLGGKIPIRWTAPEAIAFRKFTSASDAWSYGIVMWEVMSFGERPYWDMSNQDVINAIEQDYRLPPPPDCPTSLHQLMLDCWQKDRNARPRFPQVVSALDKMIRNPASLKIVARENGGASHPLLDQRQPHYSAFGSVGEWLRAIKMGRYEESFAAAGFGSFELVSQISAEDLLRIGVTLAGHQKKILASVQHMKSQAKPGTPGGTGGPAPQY

[6] = target: High affinity nerve growth factor receptor (Homo sapiens) (UniProt P04629); assay: Inhibition of TRKA (unknown origin) at 0.5 uM relative to control
[7] = target: Mast/stem cell growth factor receptor Kit (Homo sapiens) (UniProt P10721); assay: Inhibition of KIT (unknown origin) at 0.5 uM relative to control
Mast/stem cell growth factor receptor Kit (Homo sapiens), sequence (P10721 whole entry): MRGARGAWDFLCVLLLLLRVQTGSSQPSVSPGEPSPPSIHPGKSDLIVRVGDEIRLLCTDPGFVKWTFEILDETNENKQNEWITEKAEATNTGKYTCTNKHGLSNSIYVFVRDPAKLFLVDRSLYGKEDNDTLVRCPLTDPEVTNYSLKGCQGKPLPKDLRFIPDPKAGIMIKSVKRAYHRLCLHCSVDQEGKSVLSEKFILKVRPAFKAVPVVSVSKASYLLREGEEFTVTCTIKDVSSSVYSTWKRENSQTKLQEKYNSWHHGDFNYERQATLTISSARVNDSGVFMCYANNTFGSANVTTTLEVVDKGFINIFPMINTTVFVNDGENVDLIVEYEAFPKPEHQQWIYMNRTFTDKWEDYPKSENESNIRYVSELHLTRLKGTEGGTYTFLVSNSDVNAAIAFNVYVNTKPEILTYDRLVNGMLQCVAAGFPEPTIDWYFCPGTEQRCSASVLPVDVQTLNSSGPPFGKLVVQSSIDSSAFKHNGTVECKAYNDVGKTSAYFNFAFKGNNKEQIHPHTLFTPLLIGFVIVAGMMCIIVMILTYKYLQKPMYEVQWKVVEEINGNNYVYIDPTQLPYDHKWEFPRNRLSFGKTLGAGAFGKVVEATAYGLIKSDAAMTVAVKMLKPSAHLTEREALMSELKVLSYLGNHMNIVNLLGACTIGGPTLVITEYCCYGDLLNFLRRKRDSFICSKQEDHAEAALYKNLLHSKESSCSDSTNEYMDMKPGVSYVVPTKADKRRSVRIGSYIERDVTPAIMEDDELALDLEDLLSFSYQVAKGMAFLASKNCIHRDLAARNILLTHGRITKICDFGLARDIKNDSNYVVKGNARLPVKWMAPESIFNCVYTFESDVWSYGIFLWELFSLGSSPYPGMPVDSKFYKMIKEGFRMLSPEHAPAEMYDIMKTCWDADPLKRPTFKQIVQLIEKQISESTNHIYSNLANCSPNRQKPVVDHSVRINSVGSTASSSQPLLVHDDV

BDNF/NT-3 growth factors receptor (Homo sapiens), sequence (Q16620 32-822 limits assumed): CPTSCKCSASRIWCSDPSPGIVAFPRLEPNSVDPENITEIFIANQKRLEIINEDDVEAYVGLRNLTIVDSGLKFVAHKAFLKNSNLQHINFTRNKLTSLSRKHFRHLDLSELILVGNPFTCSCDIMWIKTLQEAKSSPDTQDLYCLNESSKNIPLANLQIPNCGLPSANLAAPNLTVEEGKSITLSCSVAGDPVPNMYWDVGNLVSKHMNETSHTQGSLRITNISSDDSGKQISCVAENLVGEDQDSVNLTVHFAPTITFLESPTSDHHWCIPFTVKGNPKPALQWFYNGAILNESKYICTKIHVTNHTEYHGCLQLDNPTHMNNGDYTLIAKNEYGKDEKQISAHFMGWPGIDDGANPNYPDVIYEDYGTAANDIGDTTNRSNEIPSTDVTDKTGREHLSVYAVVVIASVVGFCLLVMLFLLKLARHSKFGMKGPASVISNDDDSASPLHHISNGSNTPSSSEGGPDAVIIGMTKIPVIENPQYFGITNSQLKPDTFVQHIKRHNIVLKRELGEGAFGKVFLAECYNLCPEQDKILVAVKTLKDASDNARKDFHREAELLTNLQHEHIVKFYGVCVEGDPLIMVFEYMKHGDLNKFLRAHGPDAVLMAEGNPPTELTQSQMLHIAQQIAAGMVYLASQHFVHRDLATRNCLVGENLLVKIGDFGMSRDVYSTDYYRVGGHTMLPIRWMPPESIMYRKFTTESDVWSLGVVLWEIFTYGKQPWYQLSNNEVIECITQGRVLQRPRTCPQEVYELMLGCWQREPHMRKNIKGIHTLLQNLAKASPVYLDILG
NT-3 growth factor receptor (Homo sapiens), sequence (Q16288 32-839 limits assumed): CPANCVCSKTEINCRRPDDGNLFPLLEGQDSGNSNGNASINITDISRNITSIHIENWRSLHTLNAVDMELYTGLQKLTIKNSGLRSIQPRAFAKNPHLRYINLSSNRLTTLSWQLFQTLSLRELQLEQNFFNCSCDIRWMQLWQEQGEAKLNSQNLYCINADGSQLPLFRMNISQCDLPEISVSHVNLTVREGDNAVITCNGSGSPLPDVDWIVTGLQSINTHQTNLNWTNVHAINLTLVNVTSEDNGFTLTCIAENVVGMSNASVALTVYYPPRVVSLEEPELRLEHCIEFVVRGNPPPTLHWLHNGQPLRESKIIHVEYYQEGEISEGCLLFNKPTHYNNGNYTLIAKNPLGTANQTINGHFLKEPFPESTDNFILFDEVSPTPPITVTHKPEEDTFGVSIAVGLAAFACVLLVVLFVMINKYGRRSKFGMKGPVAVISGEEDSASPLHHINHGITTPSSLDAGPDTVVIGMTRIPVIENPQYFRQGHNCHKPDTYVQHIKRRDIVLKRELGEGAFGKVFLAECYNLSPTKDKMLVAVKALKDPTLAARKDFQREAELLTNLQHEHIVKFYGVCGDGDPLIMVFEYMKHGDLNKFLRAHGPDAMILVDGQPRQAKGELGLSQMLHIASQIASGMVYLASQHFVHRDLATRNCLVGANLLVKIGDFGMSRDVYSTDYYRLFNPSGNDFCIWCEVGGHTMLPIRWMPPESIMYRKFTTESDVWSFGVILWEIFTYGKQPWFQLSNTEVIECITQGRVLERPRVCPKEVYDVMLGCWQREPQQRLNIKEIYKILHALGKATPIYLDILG
High affinity nerve growth factor receptor (Homo sapiens), sequence (P04629 33-796 limits assumed): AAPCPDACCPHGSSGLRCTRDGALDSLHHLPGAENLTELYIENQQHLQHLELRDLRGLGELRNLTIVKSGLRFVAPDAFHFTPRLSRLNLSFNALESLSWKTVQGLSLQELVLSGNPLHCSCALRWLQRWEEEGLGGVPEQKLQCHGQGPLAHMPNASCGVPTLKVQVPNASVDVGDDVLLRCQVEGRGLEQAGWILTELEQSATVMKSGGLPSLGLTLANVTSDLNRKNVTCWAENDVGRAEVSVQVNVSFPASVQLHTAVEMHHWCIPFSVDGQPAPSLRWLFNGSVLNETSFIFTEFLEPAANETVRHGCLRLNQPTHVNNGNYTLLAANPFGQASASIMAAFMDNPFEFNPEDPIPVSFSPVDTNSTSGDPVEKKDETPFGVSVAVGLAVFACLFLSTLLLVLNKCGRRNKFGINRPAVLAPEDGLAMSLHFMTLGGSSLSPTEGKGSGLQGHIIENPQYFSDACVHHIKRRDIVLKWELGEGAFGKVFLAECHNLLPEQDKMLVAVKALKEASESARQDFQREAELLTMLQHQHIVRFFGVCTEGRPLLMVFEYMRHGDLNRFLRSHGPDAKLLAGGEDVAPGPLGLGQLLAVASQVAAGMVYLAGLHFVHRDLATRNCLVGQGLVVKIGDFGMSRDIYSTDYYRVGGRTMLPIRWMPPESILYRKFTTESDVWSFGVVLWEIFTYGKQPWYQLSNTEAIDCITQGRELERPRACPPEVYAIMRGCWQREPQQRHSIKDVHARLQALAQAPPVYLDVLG

| SMILES | inhibition [1] | inhibition [2] | inhibition [3] | inhibition [4] | inhibition [5] | inhibition [6] | inhibition [7] |
| --- | --- | --- | --- | --- | --- | --- | --- |
| CNC(=O)c1cc(Oc2ccc(NC(=O)c3nc(SC)[nH]c3-c3ccc(F)cc3)cc2)ccn1 | 83% | 93% | 90% | 97% | 82% |  |  |
| CSc1nc(C(=O)Nc2ccc(Oc3cc4cnn(C)c4cc3Br)cc2)c(-c2ccc(F)cc2)o1 |  |  |  | 87% |  |  |  |
| CNC(=O)c1cc(Oc2ccc(NC(=O)c3nc(NC)sc3-c3ccc(F)cc3)cc2)ccn1 | 71% | 51% | 76% | 96% |  | 58% | 47% |
| CNC(=O)c1cc(Oc2ccc(NC(=O)c3nc(SC)oc3-c3ccc(F)cc3)cc2)ccn1 | 40% | 48% | 51% | 99% | 42% | 47% | 40% |
| CNC(=O)c1cc(Oc2ccc(NC(=O)c3nc(C(F)(F)F)sc3-c3ccc(F)cc3)cc2)ccn1 |  |  |  | 95% | 24% |  | 33% |
| CNC(=O)c1cc(Oc2ccc(NC(=O)c3nc(S(C)(=O)=O)sc3-c3ccc(F)cc3)cc2)ccn1 |  | 27% | 25% | 96% | 24% | 36% | 25% |
| CNC(=O)c1cc(Oc2ccc(NC(=O)c3nc(SC)n(CCN(C)C)c3-c3ccc(F)cc3)cc2)ccn1 | 51% |  | 57% | 91% | 25% | 42% | 27% |
| CNC(=O)c1cc(Oc2ccc(NC(=O)c3nc(SC)oc3-c3ccc(F)cc3)cc2F)ccn1 | 36% | 39% | 46% | 98% | 43% | 43% |  |
| CNC(=O)c1cc(Oc2ccc(NC(=O)c3n[nH]nc3-c3ccc(F)cc3)cc2)ccn1 | 40% | 35% | 55% | 84% |  | 43% | 65% |
